Series [1] concerns β amyloid protein (Aβ) secreted by E35 cells (human glioma H4 cells transfected with APP751 gene). The series is described as follows: Inhibition of production or secretion of β-amyloid protein (Aβ) in E35 cells, sandwich ELISA of the supernatant. It is filed as cell-based. The following applies: 24 hours with test compound, compared to DMSO control cells, read-out: Activity (IC50, concentration at which 50% inhibition of Aβ production was observed). On the procedure:
The inhibitory activity against formation of β amyloid protein of the compounds obtained in Examples was tested in the method described bellow.
E35 cells were established by transfecting APP751 gene which is a wild type human β-amyloid protein precursor into human glioma cells (H4 cells).
E35 cells were seeded in 96-well plates and cultured in an incubator of 37° C. by using a Dulbecco's Modified Eagle's Medium containing 10% inactivated fetal bovine serum (10% FBS-DMEM). Twenty-four hours after seeding, a test compound dissolved in DMSO so as to give its concentration to be 2000 times as much as that of the final concentration was added to the medium in an amount of 1/2000 capacity of the culture medium. The cells were cultured for additional twenty-four hours, and then the supernatant was collected. The amount of β amyloid protein (Aβ) secreted in the supernatant was measured by the sandwich enzyme-linked immunosorbent assay (ELISA). Described specifically, a monoclonal antibody 25-1, which recognized Aβ25-35, was immobilized onto a 96-well ELISA plate, followed by the incubation at 4° C. for 16 to 20 hours. After washing with a phosphate buffer (pH 7.4) (PBS), a biotinylated monoclonal antibody MA32-40, which recognized Aβ1-8, was added, and the plate was kept at 4° C. for 2 hours. After the supernatant was removed and the well was washed sufficiently with PBS, alkaline phosphatase-conjugated streptavidin was added to the plate. Absorbance was measured while adding BlouPhos (manufactured by KPL) as a substrate. An amount of Aβ contained in the supernatant was calculated using a calibration curve separately created using Aβ of a known concentration. IC50 of the test compound was presented as the concentration at which 50% inhibition of Aβ production was observed compared to the amount of Aβ of the control cells to which only DMSO was added.
When there is at least 10-times difference between the IC50 and the concentration at which cytotoxicity appears, then the compound is judged as a compound having an inhibitory activity against production or secretion of β amyloid protein.
Background: ELISA stands for enzyme-linked immunosorbent assay.

Each structure is given as a SMILES string.

Broadly, the melting point is the temperature of the solid-liquid transition. As for `O=S(=O)(c1ccc(Cl)cc1)C(c1cc(F)ccc1F)c1cc(N2CCC(O)CC2)ncc1Cl` (stereo not drawn) [Example 116, 5-Chloro-4-[(4-chlorophenylsulfonyl)-(2,5-difluorophenyl)methyl]-2-(4′-hydroxypiperidin-1′-yl)pyridine], the melting point fell in the range of 146 to 148 °C. Besides, the IC50 in series [1] was 5 to 50 nM.

`CN(CCO)c1cc(C(c2cc(F)ccc2F)S(=O)(=O)c2ccc(Cl)cc2)c(Cl)cn1` (stereo not drawn) [Example 164, 2-[[5-Chloro-4-[(4-chlorophenylsulfonyl)-(2,5-difluorophenyl)methyl]pyridin-2-yl](methyl)amino]ethanol] had a melting point of 88 to 89 °C. Also, the IC50 in series [1] was less than 5 nM.

The compound `O=S(=O)(c1ccc(Cl)cc1)C(c1cc(F)ccc1F)c1cc(NCCO)ncc1Cl` (stereo not drawn) [Example 168, 2-[[5-Chloro-4-[(4-chlorophenylsulfonyl)-(2,5-difluorophenyl)methyl]pyridin-2-yl]amino]ethanol] yielded a melting point of 168 to 169 °C. For the same compound, the IC50 in series [1] is less than 5 nM.

The compound `Nc1cc(C(c2cc(F)ccc2F)S(=O)(=O)c2ccc(Cl)cc2)c(Cl)cn1` (stereo not drawn) [Example 196, [5-Chloro-4-[(4-chlorophenylsulfonyl)(2,5-difluorophenyl)methyl]pyridin-2-yl]amine] came in with a melting point of 147 to 150 °C. In addition, the IC50 in series [1] is less than 5 nM.

`CS(=O)(=O)Nc1cc(C(c2cc(F)ccc2F)S(=O)(=O)c2ccc(Cl)cc2)c(Cl)cn1` (stereo not drawn) [Example 197, N-[5-Chloro-4-[(4-chlorophenylsulfonyl)(2,5-difluorophenyl)methyl]pyridin-2-yl]methanesulfonamide] yielded a melting point of 220 to 222 °C. In series [1], the IC50 is less than 5 nM.

`Nc1cc(C(c2cc(F)ccc2F)S(=O)(=O)c2ccc(Cl)cc2)c(F)cn1` (stereo not drawn) [Example 203, [4-[(4-Chlorophenylsulfonyl)(2,5-difluorophenyl)methyl]-5-fluoropyridin-2-yl]amine] showed a melting point of 181 to 183 °C. Also, the IC50 in series [1] is 5 to 50 nM.

`Cc1cnc(N)cc1C(c1cc(F)ccc1F)S(=O)(=O)c1ccc(Cl)cc1` (stereo not drawn) [Example 211, [4-[(4-Chlorophenylsulfonyl)(2,5-difluorophenyl)methyl]-5-methylpyridin-2-yl]amine] showed a melting point of 188 to 189 °C. Further, the IC50 in series [1] was less than 5 nM.

`Nc1cc(C(c2cc(F)ccc2F)S(=O)(=O)c2ccc(F)cc2)c(Cl)cn1` (stereo not drawn) [Example 215, [5-Chloro-4-[(2,5-difluorophenyl)-(4-fluorophenylsulfonyl)methyl]pyridin-2-yl]amine] yielded a melting point of 157 to 159 °C. The IC50 in series [1] is less than 5 nM.

In the case of `CS(=O)(=O)Nc1cc(C(c2cc(F)ccc2F)S(=O)(=O)c2ccc(F)cc2)c(Cl)cn1` (stereo not drawn) [Example 216, N-[5-Chloro-4-[(2,5-difluorophenyl)-(4-fluorophenylsulfonyl)methyl]pyridin-2-yl]methanesulfonamide], the melting point was 178 to 179 °C. Further, the IC50 in series [1] was less than 5 nM.

For the compound `CS(=O)(=O)N(N)c1cc(C(c2cc(F)ccc2F)S(=O)(=O)c2ccc(Cl)cc2)c(Cl)cn1` (stereo not drawn) [Example 225, 1-[5-Chloro-4-[(4-chlorophenylsulfonyl)(2,5-difluorophenyl)methyl]pyridin-2-yl]-1-methylsulfonylhydrazine], the melting point was 152 to 154 °C. Moreover, the IC50 in series [1] fell in the range of 5 to 50 nM.

With `N#Cc1ccc(F)c(C(c2cc(N)ncc2Cl)S(=O)(=O)c2ccc(Cl)cc2)c1` (stereo not drawn) [Example 234, 3-[(2-Amino-5-chloropyridin-4-yl)(4-chlorophenylsulfonyl)methyl]-4-fluorobenzonitrile], the melting point is greater than 220 °C. The IC50 in series [1] was less than 5 nM.

In turn, `CS(=O)(=O)Nc1cc(C(c2cc(C#N)ccc2F)S(=O)(=O)c2ccc(Cl)cc2)c(Cl)cn1` (stereo not drawn) [Example 236, N-[5-Chloro-4-[(4-chlorophenylsulfonyl)(5-cyano-2-fluorophenyl)methyl]pyridin-2-yl]methanesulfonamide] showed a melting point of 118 to 120 °C. Also, the IC50 in series [1] is less than 5 nM.

These data come from patent publication US7932271B2, “Heterocyclic methyl sulfone derivative” (Daiichi Pharmaceutical Co., Ltd., priority 2003, dated 2011).
